Source: ChEMBL document CHEMBL1156617, “Heme activates artemisinin more efficiently than hemin, inorganic iron, or hemoglobin” (Bioorg Med Chem, 2008)
Active and inactive are the calls of the source. The rule behind the calls is not given here.

Tests used:
[1] = Binding affinity to oxyhemoglobin in ammonium acetate buffer at pH 8.0 over 24 hrs by spectrophotometry
[2] = Binding affinity to oxyhemoglobin in phosphate buffer at pH 7.0 at 37 degC over 24 hrs by spectrophotometry
[3] = Binding affinity to methemoglobin in phosphate buffer at pH 7.0 over 30 mins by spectrophotometry
[4] = Binding affinity to methemoglobin in phosphate buffer at pH 5.0 over 30 mins by spectrophotometry
[5] = Binding affinity to oxyhemoglobin in phosphate buffer at pH 7.0 at room temperature over 24 hrs by spectrophotometry
[6] = Binding affinity to heme in sodium acetate buffer at pH 5.0
[7] = Binding affinity to heme in ammonium acetate buffer at pH 5.0 at 40 uM in presence of ferrocyanide
[8] = Binding affinity to hemin in sodium acetate buffer at pH 5.0

Row | SMILES | Activity [1] | Activity [2] | Activity [3] | Activity [4] | Activity [5] | Activity [6] | Activity [7] | Activity [8]
1 | C[C@H]1[C@H](OC(=O)CCC(=O)O)O[C@@H]2O[C@@]3(C)CC[C@H]4[C@H](C)CC[C@@H]1[C@@]24OO3 | inactive | inactive | inactive | inactive | inactive | – | – | –
2 | C[C@@H]1CC[C@H]2[C@@H](C)C(=O)O[C@@H]3O[C@@]4(C)CC[C@@H]1[C@]32OO4 | – | – | – | – | – | Dose-dependent effect | Active | inactive
